This experiment has as its system A2780 cells. The experiment is described as follows: In-vitro cell proliferation assay (SRB, 72 hours). Format: cell-based. The conditions noted are these: Homo sapiens, A2780, 72 h, A2780 cells, 72 hours, SRB; read-out: Cell Proliferation (IC50).
With `O=C(NCC1CC12CCN(C(=O)c1cccc3[nH]ncc13)CC2)c1cc2ccncc2o1` (centres unmarked) [Example 240, N-[[6-(1H-indazole-4-carbonyl)-6-azaspiro[2.5]octan-2-yl]methyl]furo[2,3-c]pyridine-2-carboxamide], the IC50 came out at 0.0187 µM.
The figure for `O=C(NCC1CC12CCN(C(=O)c1ccc3[nH]cnc3c1)CC2)c1cc2ccncc2o1` (centres unmarked) [Example 241, N-[[6-(1H-benzimidazole-5-carbonyl)-6-azaspiro[2.5]octan-2-yl]methyl]furo[2,3-c]pyridine-2-carboxamide] is 0.0702 µM; for `N#Cc1ccc(C(=O)N2CCC3(CC2)CC3CNC(=O)c2cc3ccncc3o2)cc1` (centres unmarked) [Example 242, N-[[6-(4-cyanobenzoyl)-6-azaspiro[2.5]octan-2-yl]methyl]furo[2,3-c]pyridine-2-carboxamide] it is 0.713 µM; for `N#Cc1cccc(C(=O)N2CCC3(CC2)CC3CNC(=O)c2cc3ccncc3o2)c1` (centres unmarked) [Example 243, N-[[6-(3-cyanobenzoyl)-6-azaspiro[2.5]octan-2-yl]methyl]furo[2,3-c]pyridine-2-carboxamide] it is 0.434 µM.
With `O=C(NCC1CC12CCN(C(=O)c1ccc(CN3CCOCC3)cc1)CC2)c1cc2ccncc2o1` (centres unmarked) [Example 245, N-[[6-[4-(morpholinomcthyl)benzoyl]-6-azaspiro[2.5]octan-2-yl]methyl]furo[2,3-c]pyridine-2-carboxamide], the IC50 was found to be 0.0126 µM.
Turning to `Cc1nccn1Cc1ccc(C(=O)N2CCC3(CC2)CC3CNC(=O)c2cc3ccncc3o2)cc1` (centres unmarked) [Example 246, N-[[6-[4-[(2-methylimidazol-1-yl)methyl]benzoyl]-6-azaspiro[2.5]octan-2-yl]methyl]furo[2,3-c]pyridine-2-carboxamide], the IC50 was determined as 0.0138 µM.
The figure for `O=C(NCC1CC12CCN(C(=O)c1ccc(OC(F)(F)F)cc1)CC2)c1cc2ccncc2o1` (centres unmarked) [Example 247, N-[[6-[4-(trifluoromethoxy)benzoyl]-6-azaspiro[2.5]octan-2-yl]methyl]furo[2,3-c]pyridine-2-carboxamide] is 2 µM.
Consider `O=C(NCC1CC12CCN(C(=O)c1ccc(CN3CCCC3)cc1)CC2)c1cc2ccncc2o1` (centres unmarked) [Example 248, N-[[6-[4-(pyrrolidin-1-ylmethyl)benzoyl]-6-azaspiro[2.5]octan-2-yl]methyl]furo[2,3-c]pyridine-2-carboxamide], for which the IC50 worked out at 0.00439 µM.
As to `O=C(NCC1CC12CCN(C(=O)c1cccc(Cn3cncn3)c1)CC2)c1cc2ccncc2o1` (centres unmarked) [Example 249, N-[[6-[3-(1,2,4-triazol-1-ylmethyl)benzoyl]-6-azaspiro[2.5]octan-2-yl]methyl]furo[2,3-c]pyridine-2-carboxamide], the IC50 came out at 0.935 µM.
Then `O=C(NCC1CC12CCN(C(=O)c1ccccc1Cn1cncn1)CC2)c1cc2ccncc2o1` (centres unmarked) [Example 250, N-[[6-[2-(1,2,4-triazol-1-ylmethyl)benzoyl]-6-azaspiro[2.5]octan-2-yl]methyl]furo[2,3-c]pyridine-2-carboxamide], with 2 µM; and `O=C(NCC1CC12CCN(C(=O)c1ccc(Cn3cncn3)cc1)CC2)c1cc2ccncc2o1` (centres unmarked) [Example 251, N-[[6-[4-(1,2,4-triazol-1-ylmethyl)benzoyl]-6-azaspiro[2.5]octan-2-yl]methyl]furo[2,3-c]pyridine-2-carboxamide], with 0.215 µM; and `O=C(NCC1CC12CCN(C(=O)c1cccc(Cn3ccnc3)c1)CC2)c1cc2ccncc2o1` (centres unmarked) [Example 252, N-[[6-[3-(imidazol-1-ylmethyl)benzoyl]-6-azaspiro[2.5]octan-2-yl]methyl]furo[2,3-c]pyridine-2-carboxamide], with 0.344 µM.
Consider `O=C(NCC1CC12CCN(C(=O)c1ccc(-n3ccnc3)cc1)CC2)c1cc2ccncc2o1` (centres unmarked) [Example 253, N-[[6-(4-imidazol-1-ylbenzoy)-6-azaspiro[2.5]octan-2-yl]methyl]furo[2,3-c]pyridine-2-carboxamide], for which the IC50 was determined as 0.0554 µM.
The figure for `O=C(NCC1CC12CCN(C(=O)c1ccc(-c3ncn[nH]3)cc1)CC2)c1cc2ccncc2o1` (centres unmarked) [Example 254, N-[[6-(4-(1H-1,2,4-triazol-5-yl)benzoyl]-6-azaspiro[2.5]octan-2-yl]methyl]furo[2,3-c]pyridine-2-carboxamide] is 0.013 µM; for `O=C(NCC1CC12CCN(C(=O)c1ccc(-n3ccnc3)nc1)CC2)c1cc2ccncc2o1` (centres unmarked) [Example 255, N-[[6-(6-imidazol-1-ylpyridine-3-carbonyl)-6-azaspiro[2.5]octan-2-yl]methyl]furo[2,3-c]pyndine-2-carboxamide] it is 0.179 µM.
Regarding `O=C(NCC1CC12CCN(C(=O)c1cc(C(F)(F)F)ccn1)CC2)c1cc2ccncc2o1` (centres unmarked) [Example 256, N-[[6-[4-(trifluoromethyl]pyridine-2-carbonyl]6-azaspiro[2.5]octan-2-yl]methyl]furo[2,3-c]pyridine-2-carboxamide], the IC50 was 0.596 µM.
Regarding `O=C(NCC1CC12CCN(C(=O)c1ccc(C(F)(F)F)nc1)CC2)c1cc2ccncc2o1` (centres unmarked) [Example 257, N-[[6-[6-(trifluoromethyl]pyndine-3-carbonyl]-6-azaspiro[2.5]octan-2-yl]methyl]furo[2,3-c]pyridine-2-carboxamide], the IC50 worked out at 2 µM.
`O=C1COc2ccc(C(=O)N3CCC4(CC3)CC4CNC(=O)c3cc4ccncc4o3)cc2N1` (centres unmarked) [Example 258, N-[[6-(3-oxo-4H-1,4-benzoxazine-6-carbonyl)-6-azaspiro[2.5]octan-2-yl]methyl]furo[2,3-c]pyridine-2-carboxamide]: the IC50 worked out at 0.0203 µM.
As to `NS(=O)(=O)c1ccc(C(=O)N2CCC3(CC2)CC3CNC(=O)c2cc3ccncc3o2)cc1` (centres unmarked) [Example 259, N-[[6-(4-sulfamoylbenzoyl)-6-azaspiro[2.5]octan-2-yl]methyl]furo[2,3-c]pyridine-2-carboxamide], the IC50 was 1.2 µM.
For the molecule `O=C(NCC1CC12CCN(C(=O)c1ccccc1Cn1ccnc1)CC2)c1cc2ccncc2o1` (centres unmarked) [Example 260, N-[[6-(2-(imidazol-1-ylmethyl)benzoyl]-6-azaspito[2.5]octan-2-yl]methyl]furo[2,3-c]pyridine-2-carboxamide], the IC50 was determined as 2 µM.
The figure for `O=C(NCC1CC12CCN(C(=O)c1ccc3nccnc3c1)CC2)c1cc2ccncc2o1` (centres unmarked) [Example 261, N-[[6-(quinoxaline-6-carbonyl)-6-azaspiro[2.5]octan-2-yl]methyl]furo[2,3-c]pyridine-2-carboxamide] is 0.0158 µM.
With `O=C(NCC1CC12CCN(C(=O)c1ccc3cnccc3n1)CC2)c1cc2ccncc2o1` (centres unmarked) [Example 262, N-[[6-(1,6-naphthyridine-2-carbonyl)-6-azaspiro[2.5]octan-2-yl]methyl]furo[2,3-c]pyridine-2-carboxamide], the IC50 came to 0.0795 µM.
Then `CC(=O)Nc1cccc(C(=O)N2CCC3(CC2)CC3CNC(=O)c2cc3ccncc3o2)c1` (centres unmarked) [Example 264, N-[[6-(3-acetamidobenzoyl)-6-azaspiro[2.5]octan-2-yl]methyl]furo[2,3-c]pyridine-2-carboxamide], with 0.245 µM; and `CC(=O)Nc1cnccc1C(=O)N1CCC2(CC1)CC2CNC(=O)c1cc2ccncc2o1` (centres unmarked) [Example 265, N-[[6-(3-acetamidopyridine-4-carbonyl)-6-azaspiro[2.5]octan-2-yl]methyl]furo[2,3-c]pyridine-2-carboxamide], with 2 µM.
Take `O=C(NCC1CC12CCN(C(=O)c1ccc3nonc3c1)CC2)c1cc2ccncc2o1` (centres unmarked) [Example 266, N-[[6-(2,1,3-benzoxadiazole-5-carbonyl)-6-azaspiro[2.5]octan-2-yl]methyl]furo[2,3-c]pyridine-2-carboxamide]: the IC50 turned out to be 1.47 µM.
As for `O=C(NCC1CC12CCN(C(=O)c1ccnc3ncccc13)CC2)c1cc2ccncc2o1` (centres unmarked) [Example 267, N-[[6-(1,8-naphthyridine-4-carbonyl)-6-azaspiro[2.5]octan-2-yl]methyl]furo[2,3-c]pyridine-2-carboxamide], the IC50 was found to be 2 µM.
The figure for `O=C(NCC1CC12CCN(C(=O)c1cnc3ccccc3n1)CC2)c1cc2ccncc2o1` (centres unmarked) [Example 269] is 0.016 µM; for `O=C(NCC1CC12CCN(C(=O)c1ccc3cccnc3n1)CC2)c1cc2ccncc2o1` (centres unmarked) [Example 271, N-[[6-(1,8-naphthyridine-2-carbonyl)-6-azaspiro[2.5]octan-2-yl]methyl]furo[2,3-c]pyridine-2-carboxamide] it is 0.139 µM.
On to `O=C(NCC1CC12CCN(C(=O)c1ccno1)CC2)c1cc2ccncc2o1` (centres unmarked) [Example 272, N-[[6-(isoxazole-5-carbonyl)-6-azaspiro[2.5]octan-2-yl]methyl]furo[2,3-c]pyridine-2-carboxamide], for which the IC50 was determined as 2 µM.
For `CC(C)CC(=O)N1CCC2(CC1)CC2CNC(=O)c1cc2ccncc2o1` (centres unmarked) [Example 273, N-[[6-(3-methylbutanoyl)-6-azaspiro[2.5]octan-2-yl]methyl]furo[2,3-c]pyridine-2-carboxamide], the IC50 was 0.207 µM.
Regarding `CC(C)(C)OC(=O)N1CCC2(CC1)CC2CNC(=O)N1Cc2cn[nH]c2C1` (centres unmarked) [Example 274, tert-Butyl 2-[(4,6-dihydro-1H-pyrrolo[3,4-c]pyrazole-5-carbonylamino)methyl]-6-azaspiro[2.5]octane-6-carboxylate], the IC50 was 2 µM.
With `CN1CCC(C)(CC(=O)N2CCC3(CC2)CC3CNC(=O)c2cc3ccncc3o2)CC1` (centres unmarked) [Example 275, N-([6-[2-(1,4-dimethylpiperidin-4-yl)acetyl]-6-azaspiro[2.5]octan-1-yl]methyl)furo[2,3-c]pyridine-2-carboxamide], the IC50 turned out to be 0.0177 µM.
As to `O=C(NCC1CC12CCN(C(=O)Cc1cccnc1)CC2)c1cc2cnccc2[nH]1` (centres unmarked) [Example 277, N-[[6-[2-(3-pyridyl)acctyl]-6-azaspiro[2.5]octan-2-yl]methyl]-1H-pyrrolo[3,2-c]pyridine-2-carboxamide], the IC50 came out at 0.755 µM.
As to `O=C(NCC1CC12CCN(C(=O)Cc1ccncc1)CC2)c1cc2cnccc2[nH]1` (centres unmarked) [Example 278, N-[[6-[2-(4-pyridyl)acetyl]-6-azaspiro[2.5]octan-2-yl]methyl]-1H-pyrrolo[3,2-c]pyridine-2-carboxamide], the IC50 worked out at 2 µM.
On to `Cn1nnc(-c2ccc(C(=O)N3CCC4(CC3)CC4CNC(=O)c3cc4ccncc4o3)cc2)n1` (centres unmarked) [Example 280], for which the IC50 turned out to be 0.00683 µM.

The values above are taken from patent US10730889B2, “Amido spirocyclic amide and sulfonamide derivatives” (Forma TM, LLC, priority 2012, dated 2020).
